Experimental data taken from patent US6521814B1, “Use of ligands for treatment of diseases responsive to retinoids” (Institut National de la Santa et de la Recherche Medicale, priority 1997, dated 2003).

How the values were obtained:
RXRα−/− F9 cells [1] = experiment: Apoptosis of F9 cells (Hoechst 33258 staining, FACS); type: cell-based, murine; details: 1 μM
WT F9 cells [2] = experiment: Proliferation of F9 cells in monolayer culture (cell counting, [3H]thymidine incorporation, cell cycle FACS); type: cell-based, murine; details: 1 μM, 5 d
Description: Cells were plated in triplicate 3-cm culture wells (5×10^2 cells per well), and cell counting experiments were performed as previously described (Clifford, J., et al., EMBO J. 15:4142-4155 (1996)). [^3H]Thymidine incorporation assays were performed essentially as described (Clifford, J., et al., EMBO J. 15:4142-4155 (1996)), with the following modifications. […] The cell cycle profile of WT and mutant cells was determined as previously described (Clifford, J., et al. EMBO J. 15:4142-4155 (1996)).

RARα−/− F9 cells [3] = experiment: Apoptosis of F9 cells (Hoechst 33258 staining, FACS); type: cell-based, murine; details: 1 μM, 6 d
Description: (§1) Apoptosis was analyzed by both Hoechst staining of nuclei and FACS® analysis, as previously described (Clifford, J., et al., EMBO J. 15:4142-4155 (1996)).

RXRα−/−/RARα−/− F9 cells [4] = experiment: Morphological differentiation of F9 cell aggregates into visceral endoderm (VE)-like cells (morphology, RT-PCR of markers); type: cell-based, murine; details: 50 nM
Text: (§2) Transcript levels were quantified using a BAS 2000 bioimaging analyzer (Fuji Ltd., Tokyo, Japan), and were normalized to the corresponding 36B4 signals.

RXRα−/− F9 cells [5] = experiment: as above; type: cell-based, murine; details: 50 nM, 10 d
Text: as §2

RXRα−/−/RARγ−/− F9 cells [6] = experiment: as above; type: cell-based, murine
Text: as §2

RARγ−/− F9 cells [7] = experiment: as above; type: cell-based, murine
Description: (§3) F9 cells were cultured and induced to differentiate into primitive, parietal and visceral endoderm-like cells as previously described (Boylan, J., et al., Proc. Natl. Acad. Sci. USA 90:9601-9605 (1993); Clifford, J., et al., EMBO J. 15:4142-4155 (1996)).
(§4) RNA preparation, RT-PCR, and Southern blotting were performed as previously described (Bouillet, P., et al., Dev. Biol. 170:420-433 (1995); Roy, B., et al., Mol. Cell. Biol. 15:6481-6487 (1995)). The PCR primers and end-labeled oligonucleotide probes for collagen IVα1, laminin B1, α-fetoprotein (AFP), and 36B4, were described previously (Clifford, J., et al ., EMBO J. 15:4142-4155 (1996)). Transcript levels were quantified using a BAS 2000 bioimaging analyzer (Fuji Ltd., Tokyo, Japan), and were normalized to the corresponding 36B4 signals.

RARγ−/− F9 cells [8] = experiment: Apoptosis of F9 cells (Hoechst 33258 staining, FACS); type: cell-based, murine; details: 1 μM, 6 d
Description: as §1

WT F9 cells [9] = experiment: as above; type: cell-based, murine; details: 1 μM
Description: as §1

RARγ−/− F9 cells [10] = experiment: Differentiation of F9 cells into primitive and parietal endoderm-like cells in monolayer (morphology, RT-PCR of collagen type IVα1 and laminin B1); type: cell-based, murine; details: 1 μM, 48 h
Description: (§5) The differentiation patterns of RXRα^−/−/RARα^−/−and RXRα^−/−/RARγ^−/− cells were compared with those of WT and single knockout cell lines.
as §3, §4

RARα−/− F9 cells [11] = experiment: as above; type: cell-based, murine; details: 1 μM, 48 h
Description: as §5, §3, §4

RXRα−/−/RARα−/− F9 cells [12] = experiment: Apoptosis of F9 cells (Hoechst 33258 staining, FACS); type: cell-based, murine; details: 1 μM
RXRα−/−/RARα−/− F9 cells [13] = experiment: Differentiation of F9 cells into primitive and parietal endoderm-like cells in monolayer (morphology, RT-PCR of collagen type IVα1 and laminin B1); type: cell-based, murine
Text: as §5, §2

RXRα−/− F9 cells [14] = experiment: as above; type: cell-based, murine; details: 1 μM, 48 h
Text: as §5, §2

RXRα−/−/RARγ−/− F9 cells [15] = experiment: as above; type: cell-based, murine
Text: as §5, §2

RARα = target: T1, RARα (Mus musculus, UniProt P11416); experiment: D2R promoter CAT reporter assay in COS-1 cells cotransfected with RARα expression vector; type: cell-based; details: 0.1 μM
T1 construct: expressed in transfected cells; host or cells: COS-1
T1 sequence (P11416 1-462): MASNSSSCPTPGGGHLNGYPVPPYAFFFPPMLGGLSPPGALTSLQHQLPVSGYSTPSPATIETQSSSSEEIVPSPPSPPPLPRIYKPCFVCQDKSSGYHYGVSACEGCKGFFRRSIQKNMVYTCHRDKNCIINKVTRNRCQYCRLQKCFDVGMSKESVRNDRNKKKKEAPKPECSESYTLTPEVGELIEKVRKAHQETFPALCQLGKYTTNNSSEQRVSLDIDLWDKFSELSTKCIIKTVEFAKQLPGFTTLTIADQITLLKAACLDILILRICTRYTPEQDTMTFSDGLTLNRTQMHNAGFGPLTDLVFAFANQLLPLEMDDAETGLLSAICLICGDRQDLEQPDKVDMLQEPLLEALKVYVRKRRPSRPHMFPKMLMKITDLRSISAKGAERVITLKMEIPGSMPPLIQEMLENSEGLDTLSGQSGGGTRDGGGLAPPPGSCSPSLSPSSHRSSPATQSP
Description: The C1 reporter construct was obtained by subcloning the HindIII fragment spanning the 5 ′ promoter region of the D2R gene (positions −495 to +273), in the reporter plasmid pBLCAT3 (Luckow, B. & Schütz, G., Nucleic Acids Res. 15:5490 (1987)). The C2 reporter plasmid was constructed by subcloning the SmaI-XhoI fragment (positions −76 to +273) in the same position. The C3 and C4 reporters were generated by cloning a 29 bp synthetic oligonucleotide corresponding, respectively, to the natural rat D2R RARE sequence and the mutated one into pBLCAT2 (Luckow, B. & Schütz, G., Nucleic Acids Res. 15:5490 (1987)). The polylinker in pBLCAT2 is located upstream of the herpes simplex virus 1 (HSV1) thymidine kinase (TK) promoter, from position −105 to +51. To measure transfection efficiency the plasmid pCH110 carrying the β-galactosidase gene (Pharmacia) was used. Mouse RARβ, β and γ, as well as mouse RXRα, β and γ expression vectors were derived from the parental pSG5 vector (Green, S., et al., Nucleic Acids Res. 16:369 (1988)).
COS-1 cells were used for transient transfection assays. Cells were grown in Dulbecco's modified Eagle's medium supplemented with 5% fetal calf serum.
Several hours before transfection, the medium was replaced with fresh medium containing 5% charcoal-treated FCS. […]

RXRα−/−/RARγ−/− F9 cells [16] = experiment: Apoptosis of F9 cells (Hoechst 33258 staining, FACS); type: cell-based, murine; details: 1 μM, after 5 d
RXRα−/−/RARγ−/− F9 cells [17] = experiment: Proliferation of F9 cells in monolayer culture (cell counting, [3H]thymidine incorporation, cell cycle FACS); type: cell-based, murine; details: 1 μM
[18] = 1 μM tRA alone or with 250 μM bt2cAMP, after 4 d

increase of CAT activity (RARα; C1 reporter + RARα expression vector): 16 fold | increase of CAT activity (RARα; C2 reporter + RARα expression vector): 35 fold
Structure (SMILES): CC1=C(/C=C/C(C)=C/C=C/C(C)=C/C(=O)O)C(C)(C)CCC1 [tRA, all-trans retinoic acid]
proportion of apoptotic nuclei and subcellular fragments (Hoechst 33258) (RXRα−/− F9 cells [1]; 6 d): ± (<1%) | sub-2N size DNA-containing particles ('apoptotic bodies'), FACS (RXRα−/− F9 cells [1]; after 5 d): not detected | proportion of cells in the G0 and G1 phases (FACS) (WT F9 cells [2]): 71% | proportion of apoptotic nuclei and subcellular fragments (Hoechst 33258) (RARα−/− F9 cells [3]): ++ (>10%) | induction of collagen type IVα1, laminin B1 and AFP mRNA (RXRα−/−/RARα−/− F9 cells [4]; RXRα−/−/RARα−/− aggregates, 10 d): similarly induced | proportion of outer layer of cells displaying VE morphology (RXRα−/−/RARα−/− F9 cells [4]; RXRα−/−/RARα−/−, 10 d): +++ (more than 80%) | outer layer of cell aggregates differentiated into VE-like cells (RXRα−/−/RARα−/− F9 cells [4]; RXRα−/−/RARα−/−, after 10 d): > 80% | proportion of outer layer of cells displaying VE morphology (RXRα−/− F9 cells [5]): +++ (more than 80%) | induction of collagen IVα1, laminin B1 or AFP mRNA (RXRα−/−/RARγ−/− F9 cells [6]; RXRα−/−/RARγ−/− aggregates, 50 nM, 10 d): no induction | surface of the aggregates (RXRα−/−/RARγ−/− F9 cells [6]; RXRα−/−/RARγ−/−, 50 nM, after 10 days): as smooth after 10 days of treatment as in untreated controls | aggregates displaying only a spotty VE conversion (RXRα−/−/RARγ−/− F9 cells [6]; RXRα−/−/RARγ−/−, after 12 or 18 d of treatment): < 10% | induction of AFP mRNA (RARγ−/− F9 cells [7]; RARγ−/− aggregates, 50 nM, 10 d): hardly detectable | proportion of outer layer of cells displaying VE morphology (RARγ−/− F9 cells [7]; RARγ−/−, 50 nM, 10 d): ± (not more than 10%) | outer layer of cells exhibiting VE conversion (RARγ−/− F9 cells [7]; RARγ−/−, 50 nM, after 10 d): < 10% | proportion of outer layer of cells displaying VE morphology (RARγ−/− F9 cells [7]; RARγ−/−, 50 nM, after 14 d of treatment): +++ (more than 80%) | VE differentiation (RARγ−/− F9 cells [7]; RARγ−/−, after 14 d of treatment): full VE differentiation was eventually achieved | proportion of apoptotic nuclei and subcellular fragments (Hoechst 33258) (RARγ−/− F9 cells [8]): + (>1-10%) | proportion of apoptotic nuclei and subcellular fragments (Hoechst 33258) (WT F9 cells [9]; 6 d): ++ (>10%) | sub-2N size DNA-containing particles ('apoptotic bodies'), FACS (WT F9 cells [9]; after 5 d): appeared | induction of collagen type IVα1 mRNA, lower level compared to WT cells (RARγ−/− F9 cells [10]): 10 fold | induction of laminin B1 mRNA, lower level compared to WT cells (RARγ−/− F9 cells [10]): 6 fold | induction of collagen type IVα1 and laminin B1 mRNA compared to WT cells (RARα−/− F9 cells [11]): not altered | proportion of apoptotic nuclei and subcellular fragments (Hoechst 33258) (RXRα−/−/RARα−/− F9 cells [12]; 6 d): ± (<1%) | sub-2N size DNA-containing particles ('apoptotic bodies'), FACS (RXRα−/−/RARα−/− F9 cells [12]; after 5 d): not detected | cells with morphological characteristics of primitive or parietal endodermal differentiation (RXRα−/−/RARα−/− F9 cells [13]; [18]): < 10% | induction of collagen type IVα1 mRNA, lower level compared to WT cells (RXRα−/−/RARα−/− F9 cells [13]; 1 μM, 48 h): five | induction of collagen type IVα1 mRNA, lower level compared to WT cells (RXRα−/− F9 cells [14]): 3 fold | induction of laminin B1 mRNA, lower level compared to WT cells (RXRα−/− F9 cells [14]): 6 fold | morphological differentiation (RXRα−/−/RARγ−/− F9 cells [15]; [18]): No morphological differentiation at all | induction of collagen type IVα1 and laminin B1 mRNA (RXRα−/−/RARγ−/− F9 cells [15]; 1 μM, 48 h): fully abrogated | cells exhibiting a differentiated morphology (RXRα−/−/RARγ−/− F9 cells [15]; after 6 days of treatment): < 0.1% | morphological differentiation (RXRα−/−/RARγ−/− F9 cells [15]; after 10 d of treatment): undifferentiated phenotype persisted | sub-2N size DNA-containing particles ('apoptotic bodies'), FACS (RXRα−/−/RARγ−/− F9 cells [16]): not detected | inhibition of [3H]thymidine incorporation (RXRα−/−/RARγ−/− F9 cells [17]; 4 d): no inhibition | cell cycle profile (FACS) (RXRα−/−/RARγ−/− F9 cells [17]; 5 d): not significantly affected | effect on number of cells (cell counting) (RXRα−/−/RARγ−/− F9 cells [17]; 6 d): did not reduce, but slightly increased
